Converted amounts (≈) assume the structure as drawn. Like-named read-outs stand apart in the source and are kept apart here.
Experiments:
P. aeruginosa (PAO1) = test: MIC assay (broth microdilution, CLSI); format: cell-based
MRSA BAA-44 = test: MIC assay (broth microdilution, CLSI); conditions: Staphylococcus aureus, read-out: MIC, MRSA BAA-44
MRSA-2 = test: MIC assay with Tiron or metal(II) cation co-treatment; format: cell-based, Staphylococcus aureus; conditions: for MIC: Staphylococcus aureus
[1] = system: Staphylococcus epidermidis (ATCC 12228); test: MIC assay (broth microdilution, CLSI); format: cell-based; conditions: Staphylococcus epidermidis
S. epidermidis 12228 = test: MIC assay with Tiron or metal(II) cation co-treatment; format: cell-based, Staphylococcus epidermidis; conditions: for MIC: Staphylococcus epidermidis
K. pneumoniae 13883 = test: MIC assay (broth microdilution, CLSI); format: cell-based, Klebsiella pneumoniae
E. faecium 700221 (VRE) = test: MIC assay with Tiron or metal(II) cation co-treatment; format: cell-based, Enterococcus faecium; conditions: for MIC: Enterococcus faecium, VRE
[2] = system: MRSA-2 planktonic cells and biofilms; test: Calgary Biofilm Device (CBD) assay, MBC/MBEC; format: cell-based, Staphylococcus aureus; conditions: for MBC: Staphylococcus aureus, MRSA
human red blood cells = test: Hemolysis assay with red blood cells; conditions: 200 μM
Method in brief: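 Hemolysis expressed as percent of the Triton X signal with DMSO as zero, using OD405 of supernatant. Compounds from DMSO stocks were incubated with triple-washed human erythrocytes for 1 hour at 37° C. before centrifugation; three independent experiments.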

A. baumannii 19606 = test: MIC assay (broth microdilution, CLSI); format: cell-based, Acinetobacter baumannii
MRSA BAA-1707 = test: MIC assay (broth microdilution, CLSI); conditions: Staphylococcus aureus, read-out: MIC, MRSA BAA-1707
E. coli UAEC-1 = test: MIC assay (broth microdilution, CLSI); format: cell-based
[3] = system: Staphylococcus epidermidis (ATCC 35984), MRSE; test: MIC assay (broth microdilution, CLSI); format: cell-based; conditions: Staphylococcus epidermidis
[4] = system: MRSE (S. epidermidis ATCC 35984) planktonic cells and biofilms; test: Calgary Biofilm Device (CBD) assay, MBC/MBEC; format: cell-based, Staphylococcus epidermidis; conditions: Staphylococcus epidermidis; Table 8; read-out: MRSE 35984 MBC
[5] = system: VRE (E. faecium ATCC 700221) planktonic cells and biofilms; test: Calgary Biofilm Device (CBD) assay, MBC/MBEC; format: cell-based, Enterococcus faecium; conditions: Enterococcus; Table 8; c lowest concentration tested; read-out: VRE 700221 MBC
[6] = system: Enterococcus faecium (ATCC 700221), VRE; test: MIC assay (broth microdilution, CLSI); format: cell-based
[7] = system: MRSA-2 (methicillin-resistant Staphylococcus aureus clinical isolate); test: MIC assay (broth microdilution, CLSI); format: cell-based; conditions: for MIC: read-out: MIC, MRSA-2
[8] = system: M. tuberculosis H37Ra (ATCC 25177); test: Mycobacterium tuberculosis MIC assay; format: cell-based; conditions: Table 7, read-out: MIC, M. tuberculosis H37Ra
Experimental: The culture was then diluted with fresh medium until an OD600 of 0.01 was reached. […] The final DMSO concentration was maintained at 0.5%. […] Three rows were reserved for each compound. […] OD600 absorbance was recorded using SPECTRAMAX M5 (Molecular Devices). Data obtained from three independent experiments were analyzed using Excel.
The culture was then diluted with fresh medium until an OD600 of 0.01 was reached. […] The final DMSO concentration was maintained at 0.5%. […] Three rows were reserved for each compound. […] OD600 absorbance was recorded using SPECTRAMAX M5 (Molecular Devices). Data obtained from three independent experiments were analyzed using EXCEL.

in vitro = format: cell-based; conditions: human
Experimental: (§1) The cytotoxicities of select compounds of the invention against HeLa cells were determined. HeLa cytotoxicity was assessed using the LDH release assay described by CYTOTOX96 (Promega G1780). HeLa cells were grown in Dulbecco's Modified Eagle Medium (DMEM; Gibco) supplemented with 10% Fetal Bovine Serum (FBS) at 37° C. with 5% CO2. […] Triton X-100 (at 2% v/v) was used as the positive control for maximum lactate dehydrogenate (LDH) activity in this assay (e.g., complete cell death), while “medium only” lanes served as negative control lanes (e.g., no cell death). DMSO was used as the vehicle control. […] Finally, Stop Solution (50 μL) was added to the incubating plates, and the absorbance was measured at 490 nm.
(§2) HeLa cytotoxicity was assessed using the LDH release assay described by CYTOTOX96 (Promega G1780). HeLa cells were grown in Dulbecco's Modified Eagle Medium (DMEM; Gibco) supplemented with 10% Fetal Bovine Serum (FBS) at 37° C. with 5% CO2. […] Triton X-100 (at 2% v/v) was used as the positive control for maximum lactate dehydrogenate (LDH) activity in this assay (e.g., complete cell death), while “medium only” lanes served as negative control lanes (e.g., no cell death). DMSO was used as our vehicle control. […] Finally, Stop Solution (50 μL) was added to the incubating plates and the absorbance was measured at 490 nm. Results are from three independent experiments (FIG. 19)

[9] = system: MRSA-1 (methicillin-resistant Staphylococcus aureus clinical isolate); test: MIC assay (broth microdilution, CLSI); format: cell-based; conditions: read-out: MIC, MRSA-1
[10] = system: methicillin-resistant S. aureus (MRSA) strains; test: MIC assay, values summarised over MRSA strains; format: cell-based, Staphylococcus aureus
HeLa cells = test: in vitro; format: cell-based; conditions: human, 24 h
Experimental: as §1, §2

[11] = Pseudomonas aeruginosa, PAO1; read-out: PAO1 MIC
[12] = MRSA-2, + loss, − increase of activity
[13] = ATCC12228, Table 7, b lowest concentration tested, read-out: MIC, S. epidermidis 12228
[14] = S. epidermidis 12228, + loss, − increase of activity
[15] = Klebsiella pneumoniae, 13883; read-out: K. pneumoniae 13883 MIC
[16] = E. faecium 700221, + loss, − increase of activity
[17] = Table 8, a/b 2-/4-fold range in independent experiments, read-out: MRSA-2 MBC
[18] = Acinetobacter baumannii, 19606; read-out: A. baumannii 19606 MIC
[19] = Escherichia coli, UAEC1; read-out: E. coli UAEC-1 MIC
[20] = Table 7, read-out: MIC, MRSE 35984
[21] = Table 7, b lowest concentration tested, read-out: MIC, VRE 700221
[22] = Staphylococcus aureus, MRSA, Table 7, a midpoint of 2-fold range, b lowest concentration tested
[23] = ATCC12228, Table 2A, read-out: MIC, Staphylococcus epidermidis (ATCC 12228)
[24] = Enterococcus faecium, Table 2A, read-out: MIC, Enterococcus faecium (ATCC 700221)

SMILES | MIC (P. aeruginosa (PAO1); [11]) | MIC (MRSA BAA-44) | MIC [1, 13] | MIC (K. pneumoniae 13883; [15]) | MBC [2, 17] | % Hemolysis at 200 μM (human red blood cells; human, 1 h, pH 7.2) | MIC (A. baumannii 19606; [18]) | MIC (MRSA BAA-1707) | MIC (E. coli UAEC-1; [19]) | MIC [3, 20] | MBC [4] | MBC [5] | MIC [6, 21] | MIC [7, 22] | MIC [1, 23] | MBC ([2]; Table 4, read-out: MBC, MRSA-2) | % Hemolysis (200 μM) (human red blood cells; human, 1 h, pH 7.2) | IC50 at 24 h (in vitro) | MIC [6, 24] | also measured
Oc1ccc(Br)c2nc3cc(Br)c(Br)cc3nc12 [Compound 13] | > 100 µM | 1.56 µM (≈ 0.675 µg/mL) | 2.35 µM (≈ 1.02 µg/mL) | > 100 µM | > 200 µM | ≤1% | > 100 µM | 0.56 µM (≈ 0.242 µg/mL) | > 100 µM | 3.13 µM (≈ 1.35 µg/mL) | > 200 µM | > 200 µM | 6.25 µM (≈ 2.71 µg/mL) | 1.56 µM (≈ 0.675 µg/mL) |  |  |  |  |  | Fold Δ (Cu^2+) (MRSA-2; [12]): +8; Fold Δ (Fe^2+) (MRSA-2; [12]): +2; Fold Δ (Tiron) (MRSA-2; [12]): −125; MIC (MRSA-2; MRSA-2, 200 μM copper(II), read-out: MIC with Cu^2+): > 100 µM; MIC (MRSA-2; MRSA-2, 200 μM iron(II), read-out: MIC with Fe^2+): 25 µM; MIC (MRSA-2; MRSA-2, 1 mM Tiron, read-out: MIC with Tiron): 0.1 µM; MIC (MRSA-2; MRSA-2, no additive (Table 9), read-out: MIC): 12.5 µM; Fold Δ (Cu^2+) (S. epidermidis 12228; [14]): +500; Fold Δ (Tiron) (S. epidermidis 12228; [14]): n.a. (insignificant changes in MIC values (≤2-fold changes)); MIC (S. epidermidis 12228; S. epidermidis 12228, 200 μM CuSO4, read-out: MIC with Cu^2+): 50 µM; MIC (S. epidermidis 12228; S. epidermidis 12228, 1 mM Tiron, read-out: MIC with Tiron): 0.1 µM; MIC (S. epidermidis 12228; S. epidermidis 12228, no additive, read-out: MIC): 0.1 µM; Fold Δ (Cu^2+) (E. faecium 700221 (VRE); [16]): +64; Fold Δ (Tiron) (E. faecium 700221 (VRE); [16]): n.a. (insignificant changes in MIC values (≤2-fold changes)); MIC (E. faecium 700221 (VRE); E. faecium 700221, 200 μM CuSO4, read-out: MIC with Cu^2+): 25 µM; MIC (E. faecium 700221 (VRE); E. faecium 700221, 1 mM Tiron, read-out: MIC with Tiron): 0.39 µM; MIC (E. faecium 700221 (VRE); E. faecium 700221, no additive, read-out: MIC): 0.39 µM
Cc1nc2c(I)cc(I)c(O)c2nc1C [Compound 28] | > 100 µM |  | 2.35 µM (≈ 1 µg/mL) | > 100 µM | 93.8 µM (≈ 40 µg/mL) | 1.2% | > 100 µM |  | > 100 µM |  | 23.5 µM (≈ 10 µg/mL) |  | 6.25 µM (≈ 2.66 µg/mL) |  | 1.56 to 3.13 µM (≈ 0.665 to 1.33 µg/mL) | 93.8 µM (≈ 40 µg/mL) | 1.2% | > 100 µM | 6.25 µM (≈ 2.66 µg/mL) | MIC ([8]; Mycobacterium tuberculosis): > 50 µM; MIC [8]: >50 µM
Oc1c(Br)cc(Br)c2nc3cc4ccccc4cc3nc12 [Compound 19] |  | 75 µM (≈ 30.3 µg/mL) |  |  |  |  |  | 50 µM (≈ 20.2 µg/mL) |  |  |  |  |  |  |  |  |  |  |  | MIC (P. aeruginosa (PAO1); Pseudomonas aeruginosa, PAO1, read-out: PAO1 MIC): > 100 µM; MIC ([1]; ATCC12228, read-out: MIC, S. epidermidis 12228): 12.5 µM (≈ 5.05 µg/mL); MIC ([1]; ATCC12228, read-out: MIC, Staphylococcus epidermidis (ATCC 12228)): 12.5 µM (≈ 5.05 µg/mL); MIC (K. pneumoniae 13883; Klebsiella pneumoniae, 13883, read-out: K. pneumoniae 13883 MIC): > 100 µM; MBC ([2]; read-out: MBC, MRSA-2): 200 µM (≈ 80.8 µg/mL); MBC ([2]; read-out: MRSA-2 MBC): 200 µM (≈ 80.8 µg/mL); MRSA-2 MBC ([2]; Table 8, a/b 2-/4-fold range in independent experiments): 200/>200 μM; % Hemolysis (200 μM) (human red blood cells; 1 h, 37 °C): ≤1%; % Hemolysis at 200 μM (human red blood cells; red blood cells): <1%; % Hemolysis at 200 μM (human red blood cells; Table 8, human red blood cells): ≤1%; MIC ([9]; Staphylococcus aureus, MRSA): 12.5 µM (≈ 5.05 µg/mL); MIC ([9]; Table 2B, b lowest concentration tested): 12.5 µM (≈ 5.05 µg/mL); MIC (A. baumannii 19606; Acinetobacter baumannii, 19606, read-out: A. baumannii 19606 MIC): > 100 µM; MIC (E. coli UAEC-1; Escherichia coli, UAEC1, read-out: E. coli UAEC-1 MIC): > 100 µM; MIC ([7]; Staphylococcus aureus, MRSA): > 100 µM; MIC, MRSA-2 ([7]; Table 2B, a midpoint of 2-fold range, * partial growth inhibition at highest concentration): >100* μM; MIC ([7]; Table 7, a midpoint of 2-fold range, b lowest concentration tested): >100 µM
Oc1c(Br)cc(Cl)c2nc3ccccc3nc12 [Compound 7, 2-Bromo-4-chloro-1-hydroxyphenazine] |  | 1.56 µM (≈ 0.483 µg/mL) | 2.35 µM (≈ 0.727 µg/mL) |  | 46.9 µM (≈ 14.5 µg/mL) | ≤1% |  |  |  | 1.56 µM (≈ 0.483 µg/mL) | 11.7 µM (≈ 3.62 µg/mL) | 7.8 µM (≈ 2.41 µg/mL) | 6.25 µM (≈ 1.93 µg/mL) | 1.56 µM (≈ 0.483 µg/mL) | 1.56 to 3.13 µM (≈ 0.483 to 0.969 µg/mL) | 46.9 µM (≈ 14.5 µg/mL) | ≤1% | > 100 µM | 6.25 µM (≈ 1.93 µg/mL) | melting point: 212 to 214 °C; growth inhibition activity against at least one MRSA strain [10]: sub-micromolar; IC50 (HeLa cells): > 100 µM; MIC ([3]; Table 2A, read-out: MIC, Staphylococcus epidermidis (ATCC 35984)): 1.56 µM (≈ 0.483 µg/mL); MIC ([7]; Staphylococcus aureus, MRSA, Table 2A): 1.56 µM (≈ 0.483 µg/mL)
